Test results reported in the NIST ThermoML archive (doi:10.1021/je700260f).

Settings: 293.15 K, Liquid, Vibrating tube method

FC(C(F)(F)F)C(F)(F)F [1,1,1,2,3,3,3-heptafluoropropane]
Settings | mass density [kg/m3]
11786 kPa | 1474.1
11826 kPa | 1474.2
11860 kPa | 1474.3
11894 kPa | 1474.6
11934 kPa | 1474.7
11967 kPa | 1474.9
12017 kPa | 1475.1
12045 kPa | 1475.2
12079 kPa | 1475.4
12119 kPa | 1475.5
12156 kPa | 1475.8
12195 kPa | 1475.9
12235 kPa | 1476.1
12280 kPa | 1476.3
12314 kPa | 1476.4
12354 kPa | 1476.7
12388 kPa | 1476.9
12422 kPa | 1476.9
12468 kPa | 1477.1
12502 kPa | 1477.4
12549 kPa | 1477.5
12591 kPa | 1477.7
12626 kPa | 1477.9
12670 kPa | 1478
12710 kPa | 1478.2
12745 kPa | 1478.3
12888 kPa | 1479
12980 kPa | 1479.5
13020 kPa | 1479.6
13072 kPa | 1479.9
13099 kPa | 1480
13131 kPa | 1480.1
13163 kPa | 1480.3
13195 kPa | 1480.5
13233 kPa | 1480.6
13264 kPa | 1480.7
13307 kPa | 1480.8
13344 kPa | 1481.1
13371 kPa | 1481.1
13408 kPa | 1481.4
13440 kPa | 1481.4
13489 kPa | 1481.8
13521 kPa | 1481.8
13564 kPa | 1482
13606 kPa | 1482.2
13649 kPa | 1482.4
13687 kPa | 1482.5
13719 kPa | 1482.6
13758 kPa | 1482.8
13797 kPa | 1482.9
13824 kPa | 1483.2
13857 kPa | 1483.3
13891 kPa | 1483.4
13930 kPa | 1483.6
13963 kPa | 1483.7
14065 kPa | 1484.2
14101 kPa | 1484.3
14128 kPa | 1484.5
14165 kPa | 1484.6
14192 kPa | 1484.8
14223 kPa | 1484.9
14249 kPa | 1484.9
14285 kPa | 1485
14316 kPa | 1485.3
14339 kPa | 1485.3
14370 kPa | 1485.5
14403 kPa | 1485.6
14431 kPa | 1485.7
14462 kPa | 1485.9
14489 kPa | 1486
14520 kPa | 1486.2
14557 kPa | 1486.3
14598 kPa | 1486.4
14635 kPa | 1486.6
14673 kPa | 1486.7
14705 kPa | 1487
14732 kPa | 1486.9
14759 kPa | 1487.1
14795 kPa | 1487.3
14831 kPa | 1487.5
14872 kPa | 1487.5
14913 kPa | 1487.8
14940 kPa | 1487.9
14973 kPa | 1488
15005 kPa | 1488.2
15038 kPa | 1488.2
15080 kPa | 1488.6
15103 kPa | 1488.6
15144 kPa | 1488.7
15181 kPa | 1488.9
15209 kPa | 1488.8
15237 kPa | 1489.1
15270 kPa | 1489.2
15298 kPa | 1489.5
15335 kPa | 1489.4
15363 kPa | 1489.7
15398 kPa | 1489.7
15425 kPa | 1489.9
15467 kPa | 1490.1
15504 kPa | 1490.2
15527 kPa | 1490.4
15569 kPa | 1490.6
15611 kPa | 1490.8
15639 kPa | 1490.9
15672 kPa | 1490.8
15719 kPa | 1491.1
15747 kPa | 1491.3
15777 kPa | 1491.4
15814 kPa | 1491.4
15837 kPa | 1491.6
15880 kPa | 1491.9
15913 kPa | 1492
15942 kPa | 1492.2
15975 kPa | 1492.2
16018 kPa | 1492.4
16046 kPa | 1492.3
16079 kPa | 1492.7
16118 kPa | 1492.8
16153 kPa | 1493
16181 kPa | 1493.1
16215 kPa | 1493.2
16244 kPa | 1493.2
16277 kPa | 1493.6
16315 kPa | 1493.7
16344 kPa | 1493.7
16377 kPa | 1493.9
16411 kPa | 1493.9
16446 kPa | 1494.1
16474 kPa | 1494.1
16503 kPa | 1494.3
16532 kPa | 1494.4
16734 kPa | 1495.3
16772 kPa | 1495.4
16831 kPa | 1495.6
16865 kPa | 1495.9
16904 kPa | 1496
16934 kPa | 1496.2
16964 kPa | 1496.2
16998 kPa | 1496.3
17038 kPa | 1496.5
17068 kPa | 1496.6
17113 kPa | 1496.7
17158 kPa | 1497
17183 kPa | 1497.1
17228 kPa | 1497.2
17263 kPa | 1497.4
17293 kPa | 1497.5
17334 kPa | 1497.7
17375 kPa | 1497.8
17405 kPa | 1498
17450 kPa | 1498.2
17485 kPa | 1498.2
17520 kPa | 1498.5
17555 kPa | 1498.5
17654 kPa | 1498.9
17694 kPa | 1499.1
17726 kPa | 1499.2
17756 kPa | 1499.4
17801 kPa | 1499.4
17831 kPa | 1499.5
17856 kPa | 1499.6
17902 kPa | 1499.9
17933 kPa | 1499.9
17969 kPa | 1500.2
18004 kPa | 1500.4
18044 kPa | 1500.5
18075 kPa | 1500.4
18124 kPa | 1500.8
18164 kPa | 1500.9
18194 kPa | 1501.1
18235 kPa | 1501.3
18276 kPa | 1501.4
18313 kPa | 1501.5
18349 kPa | 1501.6
18391 kPa | 1501.8
18428 kPa | 1502
18459 kPa | 1502
18502 kPa | 1502.3
18544 kPa | 1502.5
18574 kPa | 1502.5
18611 kPa | 1502.7
18650 kPa | 1502.7
18678 kPa | 1502.9
18720 kPa | 1503.1
18753 kPa | 1503.1
18785 kPa | 1503.3
18822 kPa | 1503.5
18859 kPa | 1503.7
18888 kPa | 1503.6
18925 kPa | 1503.8
18953 kPa | 1503.9
18981 kPa | 1504.1
19018 kPa | 1504.2
19055 kPa | 1504.4
19084 kPa | 1504.5
19116 kPa | 1504.5
19145 kPa | 1504.6
19183 kPa | 1504.8
19210 kPa | 1505
19243 kPa | 1505
19282 kPa | 1505.2
19320 kPa | 1505.4
19349 kPa | 1505.5
19392 kPa | 1505.6
19430 kPa | 1505.9
19460 kPa | 1505.8
